These are literature values, as cited in US20050169991A1, “Sustained release torsemide dosage forms” (Penwest Pharmaceuticals Co., priority 2003, published 2005).

For the series the following is noted: in vivo.

As to `Cc1cccc(Nc2ccncc2S(=O)(=O)NC(=O)NC(C)C)c1` [Torsemide], the half-life is 6 h.
